Assay results published in US20240393292A1, “ALLERGY ANTIGEN AND EPITOPE THEREOF” (HOYU CO., LTD., priority 2019, published 2024).

Test system: IgE antibodies from patients
Experiment: Wheat epitope mapping (2): overlapping 10-amino-acid peptide fragments shifted by one amino acid
Type: binding, human
Conditions: sequence without X; for Epitope sequence binding to IgE antibody, rank of the sequence (Key/Preferably/More preferably/Further preferably): serum of patient P50 (child, general immediate type allergy to wheat)
Outline: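 Cellulose-bound 10-mer peptides offset by one residue were probed with patient serum IgE and detected by chemiluminescence. Secondary-antibody-only signals were subtracted per peptide. Residual binding was expressed as % of the parent overlapping peptide, scored as none (<30%), poor (30–<50%), somewhat poor (50–<70%) or retained (≥70%).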

[1] = serum of patient P52 (child, general immediate type allergy to wheat)
[2] = serum of patient P53 (child, general immediate type allergy to wheat)
[3] = serum of patient P55 (child, general immediate type allergy to wheat)
[4] = serum of patient G1 (adult, general immediate type allergy to wheat)
[5] = serum of patient G6 (adult, general immediate type allergy to wheat)

## 2233 (IRNYRVAI; REGION 1..8: note = epitope) [compound 2233]
Serum of patient P29 (WDEIA)
  Epitope sequence binding to IgE antibody, rank of the sequence (Key/Preferably/More preferably): Preferably

## 2234 (RNYR; REGION 1..4: note = epitope) [compound 2234]
Serum of patient P29 (WDEIA)
  Epitope sequence binding to IgE antibody, rank of the sequence (Key/Preferably/More preferably): Key

## 2235 (SRLLRGIRN; REGION 1..9: note = epitope) [compound 2235]
Serum of patient P30 (WDEIA)
  Epitope sequence binding to IgE antibody, rank of the sequence (Key/Preferably/More preferably): Key

## 2236 (IRNYRVAI; REGION 1..8: note = epitope) [compound 2236]
Serum of patient P30 (WDEIA)
  Epitope sequence binding to IgE antibody, rank of the sequence (Key/Preferably/More preferably): Preferably

## 2237 (NYRV; REGION 1..4: note = epitope) [compound 2237]
Serum of patient P30 (WDEIA)
  Epitope sequence binding to IgE antibody, rank of the sequence (Key/Preferably/More preferably): Key

## 2238 (LLRGIRNYRV; REGION 1..10: note = epitope) [compound 2238]
Serum of patient P31 (WDEIA)
  Epitope sequence binding to IgE antibody, rank of the sequence (Key/Preferably/More preferably): Key

## 2239 (NYRVAI; REGION 1..6: note = epitope) [compound 2239]
Serum of patient P31 (WDEIA)
  Epitope sequence binding to IgE antibody, rank of the sequence (Key/Preferably/More preferably): Key

## 2240 (IRNYRVAI; REGION 1..8: note = epitope) [compound 2240]
Serum of patient P32 (WDEIA)
  Epitope sequence binding to IgE antibody, rank of the sequence (Key/Preferably/More preferably): Key

## 2241 (RLLRGIRN; REGION 1..8: note = epitope) [compound 2241]
Serum of patient P34 (WDEIA)
  Epitope sequence binding to IgE antibody, rank of the sequence (Key/Preferably/More preferably): Key

## 2242 (IRNYRVAI; REGION 1..8: note = epitope) [compound 2242]
Serum of patient P35 (WDEIA)
  Epitope sequence binding to IgE antibody, rank of the sequence (Key/Preferably/More preferably): Key

## 2243 (RLLRGIRNY; REGION 1..9: note = epitope) [compound 2243]
Serum of patient P36 (WDEIA)
  Epitope sequence binding to IgE antibody, rank of the sequence (Key/Preferably/More preferably): Key

## 2244 (RNYRVA; REGION 1..6: note = epitope) [compound 2244]
Serum of patient P36 (WDEIA)
  Epitope sequence binding to IgE antibody, rank of the sequence (Key/Preferably/More preferably): Key

## 2245 (SRLLRGIR; REGION 1..8: note = epitope) [compound 2245]
  Epitope sequence binding to IgE antibody, rank of the sequence (Key/Preferably/More preferably/Further preferably): Preferably

## 2246 (SRLLR; REGION 1..5: note = epitope) [compound 2246]
  Epitope sequence binding to IgE antibody, rank of the sequence (Key/Preferably/More preferably/Further preferably): Key

## 2247 (LLRGIRNYRV; REGION 1..10: note = epitope) [compound 2247]
  Epitope sequence binding to IgE antibody, rank of the sequence (Key/Preferably/More preferably/Further preferably): Key

## 2248 (IRNYRVAI; REGION 1..8: note = epitope) [compound 2248]
  Epitope sequence binding to IgE antibody, rank of the sequence (Key/Preferably/More preferably/Further preferably): Key

## 2250 (SRLLRGIRN; REGION 1..9: note = epitope) [compound 2250]
[1]
  Epitope sequence binding to IgE antibody, rank of the sequence (Key/Preferably/More preferably): Preferably

## 2251 (SRLLRGIR; REGION 1..8: note = epitope) [compound 2251]
[1]
  Epitope sequence binding to IgE antibody, rank of the sequence (Key/Preferably/More preferably): Key

## 2252 (LLRGIRNYRV; REGION 1..10: note = epitope) [compound 2252]
[1]
  Epitope sequence binding to IgE antibody, rank of the sequence (Key/Preferably/More preferably): More preferably

## 2253 (RNYRVAI; REGION 1..7: note = epitope) [compound 2253]
[1]
  Epitope sequence binding to IgE antibody, rank of the sequence (Key/Preferably/More preferably): Preferably

## 2254 (NYRV; REGION 1..4: note = epitope) [compound 2254]
[1]
  Epitope sequence binding to IgE antibody, rank of the sequence (Key/Preferably/More preferably): Key

## 2255 (LLRGIRNYRV; REGION 1..10: note = epitope) [compound 2255]
[2]
  Epitope sequence binding to IgE antibody, rank of the sequence (Key/Preferably/More preferably): Preferably

## 2256 (LRGIRN; REGION 1..6: note = epitope) [compound 2256]
[2]
  Epitope sequence binding to IgE antibody, rank of the sequence (Key/Preferably/More preferably): Key

## 2257 (SRLLRGIRN; REGION 1..9: note = epitope) [compound 2257]
[3]
  Epitope sequence binding to IgE antibody, rank of the sequence (Key/Preferably/More preferably): Key

## 2258 (LRGIRNYRVA; REGION 1..10: note = epitope) [compound 2258]
[3]
  Epitope sequence binding to IgE antibody, rank of the sequence (Key/Preferably/More preferably): Preferably

## 2259 (RNYRV; REGION 1..5: note = epitope) [compound 2259]
[3]
  Epitope sequence binding to IgE antibody, rank of the sequence (Key/Preferably/More preferably): Key

## 2260 (SRLLR; REGION 1..5: note = epitope) [compound 2260]
[4]
  Epitope sequence binding to IgE antibody, rank of the sequence (Key/Preferably/More preferably): Key

## 2261 (LLRGIRNYRV; REGION 1..10: note = epitope) [compound 2261]
[4]
  Epitope sequence binding to IgE antibody, rank of the sequence (Key/Preferably/More preferably): Key

## 2262 (RNYRVAI; REGION 1..7: note = epitope) [compound 2262]
[4]
  Epitope sequence binding to IgE antibody, rank of the sequence (Key/Preferably/More preferably): Key

## 2263 (SRLLR; REGION 1..5: note = epitope) [compound 2263]
[5]
  Epitope sequence binding to IgE antibody, rank of the sequence (Key/Preferably/More preferably): Key

## 2264 (NYRVAI; REGION 1..6: note = epitope) [compound 2264]
[5]
  Epitope sequence binding to IgE antibody, rank of the sequence (Key/Preferably/More preferably): Key

## 2266 (GGIDKRV; REGION 1..7: note = epitope) [compound 2266]
Serum of patient P5 (WDEIA)
  Epitope sequence binding to IgE antibody, rank of the sequence (Key/Preferably/More preferably): Key

## 2267 (KRVIERFEK; REGION 1..9: note = epitope) [compound 2267]
Serum of patient P5 (WDEIA)
  Epitope sequence binding to IgE antibody, rank of the sequence (Key/Preferably/More preferably): Preferably

## 2268 (ERFEK; REGION 1..5: note = epitope) [compound 2268]
Serum of patient P5 (WDEIA)
  Epitope sequence binding to IgE antibody, rank of the sequence (Key/Preferably/More preferably): Key

## 2269 (LGGIDK; REGION 1..6: note = epitope) [compound 2269]
Serum of patient P7 (WDEIA)
  Epitope sequence binding to IgE antibody, rank of the sequence (Key/Preferably/More preferably): Key

## 2270 (DKRVIERFEK; REGION 1..10: note = epitope) [compound 2270]
Serum of patient P7 (WDEIA)
  Epitope sequence binding to IgE antibody, rank of the sequence (Key/Preferably/More preferably): Key

## 2271 (LGGIDKRV; REGION 1..8: note = epitope) [compound 2271]
Serum of patient P8 (WDEIA)
  Epitope sequence binding to IgE antibody, rank of the sequence (Key/Preferably/More preferably): More preferably

## 2272 (GIDKRVIERF; REGION 1..10: note = epitope) [compound 2272]
Serum of patient P8 (WDEIA)
  Epitope sequence binding to IgE antibody, rank of the sequence (Key/Preferably/More preferably): Preferably

## 2273 (GIDKRV; REGION 1..6: note = epitope) [compound 2273]
Serum of patient P8 (WDEIA)
  Epitope sequence binding to IgE antibody, rank of the sequence (Key/Preferably/More preferably): Key

## 2274 (DKRVIERFEK; REGION 1..10: note = epitope) [compound 2274]
Serum of patient P8 (WDEIA)
  Epitope sequence binding to IgE antibody, rank of the sequence (Key/Preferably/More preferably): Preferably

## 2275 (KRVIERFEK; REGION 1..9: note = epitope) [compound 2275]
Serum of patient P8 (WDEIA)
  Epitope sequence binding to IgE antibody, rank of the sequence (Key/Preferably/More preferably): Key

## 2276 (GGIDK; REGION 1..5: note = epitope) [compound 2276]
Serum of patient P10 (WDEIA)
  Epitope sequence binding to IgE antibody, rank of the sequence (Key/Preferably/More preferably): Key

## 2277 (DKRVIERFEK; REGION 1..10: note = epitope) [compound 2277]
Serum of patient P10 (WDEIA)
  Epitope sequence binding to IgE antibody, rank of the sequence (Key/Preferably/More preferably): Key

## 2279 (LGGIDK; REGION 1..6: note = epitope) [compound 2279]
Serum of patient P14 (WDEIA)
  Epitope sequence binding to IgE antibody, rank of the sequence (Key/Preferably/More preferably): Key

## 2280 (DKRVIERFEK; REGION 1..10: note = epitope) [compound 2280]
Serum of patient P14 (WDEIA)
  Epitope sequence binding to IgE antibody, rank of the sequence (Key/Preferably/More preferably): Preferably

## 2282 (IDKRVIER; REGION 1..8: note = epitope) [compound 2282]
Serum of patient P18 (WDEIA)
  Epitope sequence binding to IgE antibody, rank of the sequence (Key/Preferably/More preferably): Key

## 2283 (ERFEKE; REGION 1..6: note = epitope) [compound 2283]
Serum of patient P18 (WDEIA)
  Epitope sequence binding to IgE antibody, rank of the sequence (Key/Preferably/More preferably): Key

## 2284 (LGGIDK; REGION 1..6: note = epitope) [compound 2284]
Serum of patient P26 (WDEIA)
  Epitope sequence binding to IgE antibody, rank of the sequence (Key/Preferably/More preferably): Preferably

## 2285 (GIDK; REGION 1..4: note = epitope) [compound 2285]
Serum of patient P26 (WDEIA)
  Epitope sequence binding to IgE antibody, rank of the sequence (Key/Preferably/More preferably): Key

## 2286 (DKRVIERFEK; REGION 1..10: note = epitope) [compound 2286]
Serum of patient P26 (WDEIA)
  Epitope sequence binding to IgE antibody, rank of the sequence (Key/Preferably/More preferably): Preferably

## 2287 (KRVIERFEK; REGION 1..9: note = epitope) [compound 2287]
Serum of patient P26 (WDEIA)
  Epitope sequence binding to IgE antibody, rank of the sequence (Key/Preferably/More preferably): Key

## 2288 (KRVIERF; REGION 1..7: note = epitope) [compound 2288]
Serum of patient P27 (WDEIA)
  Epitope sequence binding to IgE antibody, rank of the sequence (Key/Preferably/More preferably): Key

## 2289 (GGIDK; REGION 1..5: note = epitope) [compound 2289]
Serum of patient P33 (WDEIA)
  Epitope sequence binding to IgE antibody, rank of the sequence (Key/Preferably/More preferably): Key

## 2290 (DKRVIERFE; REGION 1..9: note = epitope) [compound 2290]
Serum of patient P33 (WDEIA)
  Epitope sequence binding to IgE antibody, rank of the sequence (Key/Preferably/More preferably): Key
